“Also recorded” adds a separate entry of the source. Like-named read-outs stand apart in the source and are kept apart here. Blank lines part the entries; values can stand above or below the molecule they belong to.
What was measured:
[1] = system: osteoclast calcium receptor; assay: [Ca^2+]i (indo-1) in rat osteoclasts; type: cell-based
[2] = serum/blood calcium, PTH, albumin and phosphate in rats, intraperitoneal; type: in vivo, rat; details: rat, i.p.
Description: Compounds shown to activate the bovine parathyroid cell calcium receptor in vitro were tested for hypocalcemic activity in vivo. […] […] […] Serum total calcium, albumin and phosphate were measured by techniques well known in the art.

[3] = target: T1, parathyroid cell calcium receptor (Bos taurus, UniProt P35384); assay: cell-based; type: cell-based; details: for potentiation of mobilization of intracellular Ca^2+ elicited by extracellular divalent cations / change in [Ca^2+]i at low extracellular Ca^2+ / increase in [Ca^2+]i at intermediate extracellular Ca^2+: 100 μM; for change in [Ca^2+]i at low extracellular Ca^2+: 0.5 mM extracellular Ca^2+; for increase in [Ca^2+]i at intermediate extracellular Ca^2+: 1-[…] extracellular Ca^2+; for effect on intracellular Ca^2+: 500 μM
T1 sequence (P35384 21-1085 limits assumed): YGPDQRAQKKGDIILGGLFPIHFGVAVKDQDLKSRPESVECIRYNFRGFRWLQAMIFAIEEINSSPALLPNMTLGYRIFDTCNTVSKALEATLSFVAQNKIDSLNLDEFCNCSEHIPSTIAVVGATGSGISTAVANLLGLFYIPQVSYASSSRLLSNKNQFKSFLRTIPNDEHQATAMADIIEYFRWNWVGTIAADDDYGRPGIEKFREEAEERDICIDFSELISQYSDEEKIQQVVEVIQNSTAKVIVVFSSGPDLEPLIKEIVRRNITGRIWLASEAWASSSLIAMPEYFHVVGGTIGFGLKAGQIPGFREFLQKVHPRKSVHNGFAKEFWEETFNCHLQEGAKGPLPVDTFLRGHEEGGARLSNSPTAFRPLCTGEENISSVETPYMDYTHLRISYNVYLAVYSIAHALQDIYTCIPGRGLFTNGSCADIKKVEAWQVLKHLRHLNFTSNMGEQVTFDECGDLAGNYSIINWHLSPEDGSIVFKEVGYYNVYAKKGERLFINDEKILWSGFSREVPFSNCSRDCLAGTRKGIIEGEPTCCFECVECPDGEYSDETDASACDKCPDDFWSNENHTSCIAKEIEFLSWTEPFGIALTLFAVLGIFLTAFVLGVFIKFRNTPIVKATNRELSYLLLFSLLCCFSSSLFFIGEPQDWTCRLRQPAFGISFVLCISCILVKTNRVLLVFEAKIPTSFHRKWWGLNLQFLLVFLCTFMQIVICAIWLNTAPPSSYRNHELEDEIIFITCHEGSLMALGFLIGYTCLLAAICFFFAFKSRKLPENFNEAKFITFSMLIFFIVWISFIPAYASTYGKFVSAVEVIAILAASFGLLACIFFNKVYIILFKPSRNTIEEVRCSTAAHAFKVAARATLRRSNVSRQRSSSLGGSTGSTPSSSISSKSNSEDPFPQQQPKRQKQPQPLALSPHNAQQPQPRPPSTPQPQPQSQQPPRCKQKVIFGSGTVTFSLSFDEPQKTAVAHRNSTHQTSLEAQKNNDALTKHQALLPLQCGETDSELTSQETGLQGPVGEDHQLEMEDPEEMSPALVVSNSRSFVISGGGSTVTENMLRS

[4] = net positive charge; type: physicochemical; details: for Net (+) Charge: Table 1, at physiological pH
[5] = system: Ca^2+ influx in parathyroid cells; assay: influx of extracellular Ca^2+ in bovine parathyroid cells; type: cell-based; details: for [Ca^2+]i: 100 to 1000 μM, 2 mM CaCl2; for effect on increases in [Ca^2+]i elicited by extracellular Ca^2+: pretreatment
[6] = target: T2, bovine parathyroid cell calcium receptor (Bos taurus, UniProt P35384); assay: Cl^- current in Xenopus oocytes expressing BoPCaR 1; type: cell-based; details: 1 mM extracellular Ca^2+
T2 construct: expressed in transfected cells; host or cells: Xenopus laevis oocytes injected with cRNA from BoPCaR 1
T2 sequence (P35384 21-1085 limits assumed): T1 sequence (P35384 21-1085 limits assumed)
Description: These responses are mediated by the following series of biochemical events:
Xenopus oocytes were injected with BoPCaR 1, the 5.3 Kb cDNA encoding a bovine parathyroid cell calcium receptor as described in Example 25. After two to three days, Cl^- currents were examined in the oocytes using a two-electrode voltage clamp.
Xenopus oocytes were injected with BoPCaR 1 as described in Example 25. After two to three days, Cl^- currents were examined in the oocytes using two electrode voltage clamp.

[7] = target: T1, parathyroid cell calcium receptor; assay: block of extracellular Ca^2+-evoked increases in [Ca^2+]i in bovine parathyroid cells (calcilytic); type: cell-based
[8] = system: bovine parathyroid cells; assay: PTH secretion from bovine parathyroid cells; type: cell-based
[9] = target: T3, parathyroid cell calcium receptor (Homo sapiens, UniProt P41180); assay: [Ca^2+]i (fura-2) in human parathyroid cells; type: cell-based; details: 1 μM
T3 construct: Dissociated parathyroid cells were prepared from a parathyroid adenoma obtained by surgery from a patient with primary hyperparathyroidism; endogenous in cells; host or cells: primary dissociated human parathyroid cells (adenoma or hyperplastic tissue from surgery)
T3 sequence (P41180 20-1078): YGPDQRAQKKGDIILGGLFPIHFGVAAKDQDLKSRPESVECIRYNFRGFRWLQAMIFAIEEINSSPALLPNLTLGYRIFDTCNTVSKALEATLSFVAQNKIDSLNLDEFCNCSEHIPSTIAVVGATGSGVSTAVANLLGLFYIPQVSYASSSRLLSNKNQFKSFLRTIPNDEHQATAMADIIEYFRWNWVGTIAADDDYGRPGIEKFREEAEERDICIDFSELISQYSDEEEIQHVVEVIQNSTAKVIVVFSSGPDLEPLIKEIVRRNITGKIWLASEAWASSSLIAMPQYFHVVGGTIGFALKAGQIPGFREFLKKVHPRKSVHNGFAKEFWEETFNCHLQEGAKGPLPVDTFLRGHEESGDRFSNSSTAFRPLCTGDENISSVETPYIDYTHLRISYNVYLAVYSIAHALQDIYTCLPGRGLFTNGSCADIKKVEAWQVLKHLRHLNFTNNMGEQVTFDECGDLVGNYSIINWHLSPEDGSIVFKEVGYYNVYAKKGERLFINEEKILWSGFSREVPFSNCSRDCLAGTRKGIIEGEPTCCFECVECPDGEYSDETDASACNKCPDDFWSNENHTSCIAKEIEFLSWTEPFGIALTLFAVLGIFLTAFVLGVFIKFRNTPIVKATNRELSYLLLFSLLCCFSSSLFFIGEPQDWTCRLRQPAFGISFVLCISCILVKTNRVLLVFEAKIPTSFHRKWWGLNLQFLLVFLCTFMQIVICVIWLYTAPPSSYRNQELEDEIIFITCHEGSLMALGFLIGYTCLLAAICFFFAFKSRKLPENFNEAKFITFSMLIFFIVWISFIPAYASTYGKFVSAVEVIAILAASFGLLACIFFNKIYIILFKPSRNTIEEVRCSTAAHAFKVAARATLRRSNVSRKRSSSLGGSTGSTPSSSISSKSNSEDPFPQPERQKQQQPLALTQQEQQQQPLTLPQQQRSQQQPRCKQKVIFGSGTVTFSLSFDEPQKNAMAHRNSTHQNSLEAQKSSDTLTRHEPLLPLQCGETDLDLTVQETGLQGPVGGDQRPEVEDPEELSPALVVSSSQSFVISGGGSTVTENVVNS

EC50 ([1]; Table 6, rat osteoclasts): 250 µM
Molecule: CC(NCCCc1ccccc1)c1ccc(Cl)cc1 (racemic) [Compound 1H]

potentiation of mobilization of intracellular Ca^2+ elicited by extracellular divalent cations [3]: potentiated the mobilization | change in [Ca^2+]i at low extracellular Ca^2+ [3]: evoked no change in [Ca^2+ ]i | increase in [Ca^2+]i at intermediate extracellular Ca^2+ [3]: small, but robust increase
Molecule: COc1ccc(CCN(C)CCCC(C#N)(c2cc(OC)c(OC)c(OC)c2)C(C)C)cc1OC [Compound D-600, reference compound]
block of influx of extracellular Ca^2+ ([5]; 100 μM): blocked the influx

Net (+) Charge [4]: +2
Molecule: NCCCCCCCCCCCCN [DADD, 1,12-diaminododecane]
[Ca^2+]i [5]: prompt fall in [Ca^2+ ]i | effect on increases in [Ca^2+]i elicited by extracellular Ca^2+ [5]: depresses steady-state, but not transient increases in [Ca^2+ ]i

Net (+) Charge [4]: +10
Molecule: NCCCN(CCCN)CCCN(CCCN)CCCCN(CCCN)CCCN(CCCN)CCCN [NPS 381, N^1, N^1, N^5, N^10, N^14, N^14-hexakis-(3-aminopropyl) spermine]

Net (+) Charge [4]: +8
Molecule: NCCCN1CCCN(CCCN)CCN(CCCN)CCCN(CCCN)CC1 [NPS 383]

increase in [Ca^2+]i ([3]; 300 μM): did not evoke an increase in [Ca^2+ ]i | potentiation of transient increases in [Ca^2+]i ([3]; 300 μM): fails to do so
Molecule: COc1ccc(CC(=O)NCCCCCCCCCCCCN)cc1OC [NPS 384]
block of influx of extracellular Ca^2+ ([5]; 300 μM): blocked influx of extracellular Ca^2+ | [Ca^2+]i [5]: prompt fall in [Ca^2+ ]i | effect on increases in [Ca^2+]i elicited by extracellular Ca^2+ [5]: depresses steady-state, but not transient increases in [Ca^2+ ]i

Net (+) Charge [4]: +5
Molecule: NCCNCCNCCNCCN [TEPA, Tetraethylenepentamine]

Net (+) Charge [4]: +4
Molecule: NCCNCCNCCN [TETA, Triethylenetramine]

change in [Ca^2+]i at low extracellular Ca^2+ [3]: evoked no change in [Ca^2+ ]i | increase in [Ca^2+]i at intermediate extracellular Ca^2+ [3]: small, but robust increase
Molecule: CCN(CC)CCCCCCCCOC(=O)c1cc(OC)c(OC)c(OC)c1 [TMB-8, reference compound]
block of influx of extracellular Ca^2+ ([5]; 100 μM): blocked the influx | potentiation of mobilization of intracellular Ca^2+ elicited by extracellular divalent cations [3]: potentiated the mobilization; also recorded: potentiated transient increases in [Ca^2+ ]i

effect on intracellular Ca^2+ [3]: without effect | net positive charge at pH 7.3 [4]: +1
Molecule: CCC[C@@H]1C[C@@H](C(=O)N[C@@H]([C@H]2O[C@H](SC)[C@H](O)[C@@H](O)[C@H]2O)[C@@H](C)O)N(C)C1 [lincomycin, reference compound]

effect on sustained increases in [Ca^2+]i elicited by extracellular Mg^2+ [9]: not affected by nimodipine
Molecule: COCCOC(=O)C1=C(C)NC(C)=C(C(=O)OC(C)C)C1c1cccc([N+](=O)[O-])c1 (centres unmarked) [nimodipine]

effect on basal [Ca^2+]i or increases evoked by extracellular Ca^2+ ([3]; 1 μM): None of the dihydropyridines tested
Molecule: CCOC(=O)C1=C(C)NC(C)=C(C(=O)OC)C1c1cccc([N+](=O)[O-])c1 (centres unmarked) [nitrendipine, reference compound]

Further lines, the molecule ahead of its results:

Molecule: COc1cccc(C(C)NCCCc2ccccc2)c1 (racemic) [NPS 467]
reduction in serum or whole blood Ca^2+ [2]: dose-dependent reduction in serum or whole blood Ca^2+ | time to return toward control levels [2]: 24 h | change in serum albumin or phosphate ([2]; all doses): no change in serum albumin or phosphate levels | circulating PTH ([2]; preliminary studies): dose-dependent reduction in circulating levels of PTH

Molecule: N=C(N)NCCC[C@H](N)C(=O)NCCCNCCCNCCCCCNC(=O)[C@H](CC(N)=O)NC(=O)Cc1c[nH]c2cccc(O)c12 [Argiotoxin-659, reference compound]
EC50 [3]: 300 µM | increases in [Ca^2+]i ([3]; 100 to 300 μM): evoked transient increases in [Ca^2+ ]i | EC50 ([3]; EC50 for mobilizing intracellular Ca^2+, bovine parathyroid cells): 300 µM | Net (+) Charge [4]: +4

Molecule: NC[C@H]1O[C@H](O[C@H]2[C@H](O)[C@@H](O[C@H]3O[C@H](CO)[C@@H](O)[C@H](N)[C@H]3O)[C@H](N)C[C@@H]2N)[C@H](N)[C@@H](O)[C@@H]1O [Bekanamycin]
Net (+) Charge [4]: +5 | net positive charge at pH 7.3 [4]: +5

Molecule: NC[C@H]1O[C@H](O[C@H]2[C@H](O)[C@@H](O[C@H]3O[C@H](CO)[C@@H](O)[C@H](N)[C@H]3O)[C@H](N)C[C@@H]2N)[C@H](O)[C@@H](O)[C@@H]1O [Kanamycin, reference compound]
effect on intracellular Ca^2+ [3]: without effect | net positive charge at pH 7.3 [4]: ~+4.5

Molecule: NCCCNCCCCNCCCNCCCN(O)CCCNC(=O)Cc1c[nH]c2ccccc12 [NPS 017, reference compound]
Cl^- current [6]: oscillatory increases in the Cl^- current

Molecule: NCCCCCCCCCCCCNC(=O)Cc1ccc(O)cc1O [NPS 021]
change in [Ca^2+]i by the compound itself ([7]; 0.5 mM extracellular Ca^2+): does not by itself cause any change in [Ca^2+ ]i | IC50 ([7]; bovine parathyroid cells): ~200 µM | IC100 ([7]; read-out: concentration abolishing the increase in [Ca^2+]i evoked by extracellular Ca^2+): ~500 µM

Molecule: NCCCN(CCCN)CCCNCCCCNCCCN(CCCN)CCCN [NPS 382, N^1, N^1, N^5, N^14, N^14-tetrakis-(3-aminopropyl)spermine]
Net (+) Charge [4]: +8

Molecule: NCCCCNCCCN [Spermidine]
Net (+) Charge [4]: +3 | increase in [Ca^2+]i relative to maximal extracellular Ca^2+ ([1]; osteoclasts, 1000 µM): about 10%

Molecule: NCCCNCCCCNCCCN [Spermine]
inhibition of PTH secretion [8]: inhibited PTH secretion to the same extent as extracellular Ca^2+

Molecule: [H]/N=C(/N)N[C@H]1[C@H](O)[C@@H](O)[C@H](O[C@@H]2O[C@@H](C)[C@](O)(C=O)[C@H]2O[C@@H]2O[C@@H](CO)[C@H](O)[C@@H](O)[C@@H]2NC)[C@@H](N/C(N)=N\[H])[C@@H]1O [Streptomycin]
Net (+) Charge [4]: +3 | net positive charge at pH 7.3 [4]: +3

Molecule: N[C@@H](Cn1oc(=O)[nH]c1=O)C(=O)O [quisqualate, reference compound]
response to mGluR agonists ([3]; bovine parathyroid cells, or Xenopus oocytes expressing calcium receptors): did not respond

Molecule: Gentamicin
Net (+) Charge [4]: +5 | net positive charge at pH 7.3 [4]: +5

From patent publication US5688938A, “Calcium receptor-active molecules” (priority 1995, dated 1997)
